# Entries after “also recorded” stand apart in the source; their conditions may differ.
# What was measured:
# circulating tumor DNA = test: Circulating tumor DNA variant allele frequency in melanoma pts; assay type: in vivo, human; details: ctDNA, subset of melanoma pts
# Source text: Peripheral blood samples were collected at specified timepoints as described in the schedule of assessments to be used for the longitudinal evaluation ctDNA by molecular (NGS) methodologies as pharmacodynamic biomarkers associated with response or resistance.
# [1] = system: RAF family of serine/threonine kinases; test: Preclinical RAF kinase inhibition; assay type: biochemical
# [2] = system: tumor cell lines harboring non-V600 B-RAF mutations; test: Preclinical inhibition of tumor cell lines; assay type: cell-based; details: preclinical studies
compound,measurement,setting,value
"O=C1CCc2c(Oc3ccc4c(c3)[C@H]3[C@H](NC(=O)Nc5cc(F)c(F)cc5F)[C@H]3O4)ccnc2N1 [Compound A, 1-((1S,1aS,6bS)-5-((7-oxo-5,6,7,8-tetrahydro-1,8-naphthyridin-4-yl)oxy)-1a,6b-dihydro-1H-cyclopropa[b]benzofuran-1-yl)-3-(2,4,5-trifluorophenyl)urea]","maximum reduction of VAF, range",circulating tumor DNA,98.7-99.9%
same,maximum reduction of variant allele frequency (VAF) of detected mutations,circulating tumor DNA; across evaluated subjects,99.3%
same,Potency against RAF monomer & dimer,[1]; monomer versus dimer,equal potency
same,Inhibitory activity against RAF kinases,[1]; preclinical,potent inhibitory activity; also recorded: highly potent
same,Inhibition of tumor cell lines,[2],inhibited

# — patent US20250090507A1, “Methods of Treating Cancer With a B-RAF Inhibitor” (MapKure, LLC, priority 2022, published 2025)
